Key:
[1] = molecular target: T1, HCV genotype 1b (BK) NS3 modified enzyme with a R155K mutation (Hepatitis C virus genotype 1b, UniProt P26663, R1181K); experiment: HCV NS3 protease time-resolved fluorescence (TRF) assay, genotype 1b R155K; type: biochemical; details: Ki 1b R155K
T1 construct: HCV genotype 1b (BK) NS3 modified enzyme
In short: (§1)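 Pre-incubation of NS3/NS4A protease with inhibitor for 10 min in pH 7.5 HEPES buffer with 10 mM DTT; 25 nM TRF peptide substrate, hydrolysis 6 h at room temperature. Fluorescence read at ex 340/em 615 nm with 400 μs delay, enzyme level set for S/B 5-20; IC50 by four-parameter fit.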

[2] = molecular target: HCV NS3 protease genotype 3a (3A-1) (Hepatitis C virus genotype 3a, UniProt Q81258); experiment: HCV NS3 protease time-resolved fluorescence (TRF) assay, genotype 3a; type: biochemical; details: Ki 3a
In short: as §1

[3] = genotype 1b (BK) NS3 R155K, single value

C=C[C@@H]1C[C@]1(NC(=O)[C@@H]1C[C@@H]2CN1C(=O)[C@H](C(C)(C)C)NC(=O)O[C@@H]1C[C@H]1CCCCCc1c(nc3ccccc3c1OCCCN1CC(F)(F)C1)O2)C(=O)NS(=O)(=O)C1(C)CC1 [Example 206, (1aR,5S,8S,10R,22aR)-5-tert-butyl-17-[3-(3,3-difluoroazetidin-1-yl)propoxy]-N-[(1R,2S)-2-ethenyl-1-{[(1-methylcyclopropyl)sulfonyl]carbamoyl}cyclopropyl]-3,6-dioxo-1,1a,3,4,5,7,9,10,18,19,20,21,22,22a-tetradecahydro-8H-7,10-methanocyclopropa[18,19][1,10,3,6] dioxadiazacyclononadecino[11,12-b] quinoline-8-carboxamide]
Ki [1, 3]: 0.2 nM
Ki [2]: 2.6 nM

C=C[C@@H]1C[C@]1(NC(=O)[C@@H]1C[C@@H]2CN1C(=O)[C@H](C1CCCCC1)NC(=O)O[C@@H]1C[C@H]1CCCCCc1c(nc3c(OC)cccc3c1OCC1CN(C(=O)OC(C)(C)C)C1)O2)C(=O)NS(=O)(=O)C1(C)CC1 [Example 215, tent-butyl 3-[({(1aS,5R,8S,10R,22aR)-5-cyclohexyl-8-[(2-ethenyl-1-{[(1-methylcyclopropyl)sulfonyl]carbamoyl}cyclopropyl)carbamoyl]-13-methoxy-3,6-dioxo-1,1a,3,4,5,6,9,10,18,19,20,21,22,22a-tetradecahydro-8H-7,10-methanocyclopropa[18,19][1,10,3,6]dioxadiazacyclononadecino[11,12-b]quinolin-1'7-yl}oxy)methyl]azetidine-1-carboxylate]
Ki [1, 3]: 1.7 nM
Ki [2]: 55 nM

C=C[C@@H]1C[C@]1(NC(=O)[C@@H]1C[C@@H]2CN1C(=O)[C@H](C(C)(C)C)NC(=O)O[C@@H]1C[C@H]1CCCCCc1c(nc3ccccc3c1OCCCN(CC)CCc1nc3ccccc3[nH]1)O2)C(=O)NS(=O)(=O)C1(C)CC1 [Example 192, (1aR,5S,8S,10R,22aR)-17-(3-{[2-(1H-benzimidazol-2-yl)ethyl](ethyl)amino}propoxy)-5-tert-butyl-N-[(1R,2S)-2-ethenyl-1-{[(1-methylcyclopropyl)sulfonyl]carbamoyl}cyclopropyl]-3,6-dioxo-1,1a,3,4,5,6,9,10,18,19,20,21, 22,22a-tetradecahydro-8H-7,10-methanocyclopropa[18,19][1,10,3,6] dioxadiazacyclononadecino[11,12-b] quinoline-8-carboxamide]
Ki [1, 3]: 0.1 nM
Ki [2]: 0.71 nM

C=C[C@@H]1C[C@]1(NC(=O)[C@@H]1C[C@@H]2CN1C(=O)[C@H](C(C)(C)C)NC(=O)O[C@@H]1C[C@H]1CCCCCc1c(nc3ccccc3c1-c1cccnc1)O2)C(=O)NS(=O)(=O)C1(C)CC1 [Example 246, (1aR,5S,8S,10R,22aR)-5-tert-butyl-N-[(1R,2S)-2-ethenyl-1-{[(1-methylcyclopropyl)sulfonyl]carbamoyl}cyclopropyl]-3,6-dioxo-17-(pyridin-3-yl)-1,1a,3,4,5,6,9,10,18,19,20,21,22,22a-tetradecahydro-8H-7,10-methanocyclopropa[18,19][1,10,3,6]dioxadiazacyclononadecino[11,12-b]quinoline-8-carboxamide]
Ki ([1]; first of two values printed in the cell (not explained)): 1.02 nM
Ki ([1]; second of two values printed in the cell (not explained)): 1.14 nM
Ki [2]: 211 nM

C=C[C@@H]1C[C@]1(NC(=O)[C@@H]1C[C@@H]2CN1C(=O)[C@H](C(C)(C)C)NC(=O)O[C@@H]1C[C@H]1CCCCCc1c(nc3c(OC)cccc3c1OCCCN1CCCC1)O2)C(=O)NS(=O)(=O)C1(C)CC1 [Example 143, (1aR,5S,8S,10R,22aR)-5-tert-butyl-N-[(1R,2S)-2-ethenyl-1-{[(1-methylcyclopropyl)sulfonyl]carbamoyl}cyclopropyl]-13-methoxy-3,6-dioxo-17-[3-(pyrrolidin-1-yl)propoxy]-1,1a,3,4,5,6,9,10,18,19,20,21,22,22a-tetradecahydro-8H-7,10-methanocyclopropa[18,19][1,10,3,6]dioxadiazacyclononadecino[11,12-b]quinoline-8-carboxamide]
Ki [1, 3]: 0.059 nM
Ki [2]: 0.64 nM
